Counter-ions that a name gives are not always drawn. A value given as a limit tells only on which side of the number the result lay.

Experiment [1] deals with leukotriene pathway in human whole blood (LTB4 levels). The experiment is described as follows: Human whole blood assay (A23187-stimulated LTB4). The class given is cell-based. The following applies: Homo sapiens, human whole blood diluted 1:1 in RPMI, A23187-stimulated LTB4; read-out: LTB4 IC50 1:1. The essentials:
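Heparinised human whole blood diluted 1:1 in RPMI, pre-incubated 15 min at 37° Celsius with compound, then stimulated with A23187 (7 μg/mL) for 30 min at 37° Celsius. Plasma LTB4 measured by immunoassay kit; IC50 from 4-parameter fit; single replicate per plate, at least one healthy donor.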

In experiment [2] the target is human FLAP (Homo sapiens (Human), UniProt P20292). The experiment is described as follows: FLAP binding assay (HTRF format). The settings on record: human FLAP wild type, HTRF format; average of two plates, duplicates. The essentials: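 Reported data take the mean of two different plates carrying duplicate samples and use the HTRF ratio as the measured signal.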
Chain of human FLAP (P20292 whole entry): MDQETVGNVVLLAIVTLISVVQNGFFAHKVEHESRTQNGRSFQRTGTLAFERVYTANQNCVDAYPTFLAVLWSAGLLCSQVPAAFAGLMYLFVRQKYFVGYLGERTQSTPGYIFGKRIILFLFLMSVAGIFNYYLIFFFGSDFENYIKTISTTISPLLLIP
(Time-resolved FRET reads energy transfer from a long-lived donor to a nearby acceptor.)

A word on the IC50: it is the concentration that inhibits the measured activity by half. Broadly, the Ki is a dissociation constant, usually derived from enzyme kinetics or from competition with a known ligand. A low value points to a stronger hold on the target. For `CC(C)(C)[C@@H](CO)NS(=O)(=O)c1ccccc1-c1ccc(-c2cnc(N)cn2)c(F)c1` [Example 149, (S)-4′-(5-Aminopyrazin-2-yl)-3′-fluoro-N-(1-hydroxy-3,3-dimethylbutan-2-yl)-[1,1′-biphenyl]-2-sulfonamide], the half-inhibitory concentration (IC50) in experiment [1] amounted to 82 nM. This compound also returned a Ki in experiment [2] of 5 nM.
For the compound `CC(C)(C)[C@H](CO)NS(=O)(=O)c1ccccc1-c1ccc(-c2cnc(N)cn2)c(F)c1` [Example 150, (R)-4′-(5-Aminopyrazin-2-yl)-3′-fluoro-N-(1-hydroxy-3,3-dimethylbutan-2-yl)-[1,1′-biphenyl]-2-sulfonamide], the IC50 in experiment [1] came out at 11 nM. This compound registered a Ki in experiment [2] of 1 nM.
For `CC(C)(C)OC(=O)NCCNS(=O)(=O)c1ccccc1-c1ccc(-c2cnc(N)cn2)c(F)c1` [Example 151, tert-Butyl [2-({[4′-(5-aminopyrazin-2-yl)-3′-fluorobiphenyl-2-yl]sulfonyl}amino)ethyl]carbamate], the IC50 in experiment [1] is 114 nM. In experiment [2], this compound gave an inhibition constant (Ki) of 1 nM.
On to `NCCNS(=O)(=O)c1ccccc1-c1ccc(-c2cnc(N)cn2)c(F)c1` [Example 152, N-(2-Aminoethyl)-4′-(5-aminopyrazin-2-yl)-3′-fluorobiphenyl-2-sulfonamide], for which the IC50 in experiment [1] was found to be 537 nM. Also, in experiment [2], the Ki was found to be 81 nM.
For `CC[C@@H](CO)NS(=O)(=O)c1ccccc1-c1ccc(-c2cnc(N)cn2)c(F)c1` [Example 153, (S)-4′-(5-Aminopyrazin-2-yl)-3′-fluoro-N-(1-hydroxybutan-2-yl)-[1,1′-biphenyl]-2-sulfonamide] the same measures were 7 nM and 3 nM.
The like results for `Nc1cnc(-c2ccc(-c3ccccc3S(=O)(=O)N[C@H]3CCNC3)cc2F)cn1` [Example 154, (S)-4′-(5-Aminopyrazin-2-yl)-3′-fluoro-N-(pyrrolidin-3-yl)-[1,1′-biphenyl]-2-sulfonamide] were, in that order, 1040 nM and 29 nM.
For `CC(=O)NCCNS(=O)(=O)c1ccccc1-c1ccc(-c2cnc(N)cn2)c(F)c1` [Example 155, N-[2-({[4′-(5-Aminopyrazin-2-yl)-3′-fluorobiphenyl-2-yl]sulfonyl}amino)ethyl]acetamide] the same measures were 103 nM and 12 nM.
With `C[C@H](NS(=O)(=O)c1ccccc1-c1ccc(-c2cnc(N)cn2)c(F)c1)C(=O)O` [Example 156, (S)-2-(4′-(5-Aminopyrazin-2-yl)-3′-fluoro-[1,1′-biphenyl]-2-ylsulfonamido)propanoic acid], the IC50 in experiment [1] is more than 10000 nM. In experiment [2], this compound registered an inhibition constant Ki of 351 nM.
For `NC(=O)NCCNS(=O)(=O)c1ccccc1-c1ccc(-c2cnc(N)cn2)c(F)c1` [Example 157, 4′-(5-Aminopyrazin-2-yl)N—N-[2-(carbamoylamino)ethyl]-3′-fluorobiphenyl-2-sulfonamide] the same measures were 1840 nM and 10 nM.
For `Nc1cnc(-c2ccc(-c3ccccc3S(=O)(=O)N[C@H]3c4ccccc4C[C@@H]3O)cc2F)cn1` [Example 158, 4′-(5-Aminopyrazin-2-yl)-3′-fluoro-N-((1S,2S)-2-hydroxy-2,3-dihydro-1H-inden-1-yl)-[1,1′-biphenyl]-2-sulfonamide] the same measures were 1 nM and 1 nM.
The like results for `Nc1cnc(-c2ccc(-c3ccccc3S(=O)(=O)N[C@@H]3c4ccccc4C[C@H]3O)cc2F)cn1` [Example 159, 4′-(5-Aminopyrazin-2-yl)-3′-fluoro-N-((1R,2R)-2-hydroxy-2,3-dihydro-1H-inden-1-yl)-[1′,1′-biphenyl]-2-sulfonamide] were, in that order, 1 nM and 1 nM.
With `Nc1cnc(-c2ccc(-c3ccccc3S(=O)(=O)N[C@H]3CCCC[C@@H]3O)cc2F)cn1` [Example 162, 4′-(5-Aminopyrazin-2-yl)-3′-fluoro-N-((1S,2S)-2-hydroxycyclohexyl)-[1,1′-biphenyl]-2-sulfonamide], the IC50 in experiment [1] stood at 122 nM. In experiment [2], this compound yielded a Ki of 5 nM.
The like results for `Nc1cnc(-c2ccc(-c3ccccc3S(=O)(=O)Nc3ccc(C(F)(F)F)nc3)cc2F)cn1` [Example 163, 4′-(5-Aminopyrazin-2-yl)-3′-fluoro-N-[6-(trifluoromethyl)pyridin-3-yl]biphenyl-2-sulfonamide] were, in that order, 595 nM and 1 nM.
The like results for `Nc1cnc(-c2ccc(-c3ccccc3S(=O)(=O)N3CCC(c4c[nH]cn4)CC3)cc2F)cn1` [Example 164, 5-(3-Fluoro-2′-{[4-(1H-imidazol-4-yl)piperidin-1-yl]sulfonyl}biphenyl-4-yl)pyrazin-2-amine] were, in that order, 333 nM and 1 nM.
The like results for `Cc1ncc(CNS(=O)(=O)c2ccccc2-c2ccc(-c3cnc(N)cn3)c(F)c2)c(N)n1` [Example 165, N-[(4-Amino-2-methylpyrimidin-5-yl)methyl]-4′-(5-aminopyrazin-2-yl)-3′-fluorobiphenyl-2-sulfonamide] were, in that order, 879 nM and 18 nM.
Consider `COc1cc(NS(=O)(=O)c2ccccc2-c2ccc(-c3cnc(N)cn3)c(F)c2)nc(OC)n1` [Example 166, 4′-(5-Aminopyrazin-2-yl)-N-(2,6-dimethoxypyrimidin-4-yl)-3′-fluorobiphenyl-2-sulfonamide], for which, in experiment [1], the IC50 stood at 4460 nM. In experiment [2], the Ki turned out to be 164 nM.
The like results for `Cc1cnc(NS(=O)(=O)c2ccccc2-c2ccc(-c3cnc(N)cn3)c(F)c2)cn1` [Example 167, 4′-(5-Aminopyrazin-2-yl)-3′-fluoro-N-(5-methylpyrazin-2-yl)biphenyl-2-sulfonamide] were, in that order, 442 nM and 47 nM.
For `CC(C)C[C@H](NS(=O)(=O)c1ccccc1-c1ccc(-c2cnc(N)cn2)c(F)c1)C(N)=O` [Example 168, (S)-2-(4′-(5-Aminopyrazin-2-yl)-3′-fluoro-[1,1′-biphenyl]-2-ylsulfonamido)-4-methylpentanamide] the same measures were 135 nM and 14 nM.
For `N#CCCN(C1CC1)S(=O)(=O)c1ccccc1-c1ccc(-c2cnc(N)cn2)c(F)c1` [Example 172, 4′-(5-Aminopyrazin-2-yl)-N-(2-cyanoethyl)-N-cyclopropyl-3′-fluorobiphenyl-2-sulfonamide] the same measures were 20 nM and 4 nM.
On to `CC1(NS(=O)(=O)c2ccccc2-c2ccc(-c3cnc(N)cn3)c(F)c2)COC1` [Example 173, 4′-(5-Aminopyrazin-2-yl)-3′-fluoro-N-(3-methyloxetan-3-yl)biphenyl-2-sulfonamide], for which, in experiment [1], the IC50 amounted to 17 nM. This compound also had a Ki in experiment [2] of 1 nM.
For `N#CCCN1CCN(S(=O)(=O)c2ccccc2-c2ccc(-c3cnc(N)cn3)c(F)c2)CC1` [Example 174, 3-(4-{[4′-(5-Aminopyrazin-2-yl)-3′-fluorobiphenyl-2-yl]sulfonyl}piperazin-1-yl)propanenitrile] the same measures were 23 nM and 2 nM.
For `COC[C@H](C)NS(=O)(=O)c1ccccc1-c1ccc(-c2cnc(N)cn2)c(F)c1` [Example 175, (S)-4′-(5-Aminopyrazin-2-yl)-3′-fluoro-N-(1-methoxypropan-2-yl)-[1,1′-biphenyl]-2-sulfonamide] the same measures were 17 nM and 1 nM.
Regarding `CN(C)S(=O)(=O)Nc1ccccc1-c1ccc(-c2cnc(N)cn2)c(F)c1` [Example 182, N′-[4′-(5-Aminopyrazin-2-yl)-3′-fluorobiphenyl-2-yl]-N,N-dimethylsulfamide], in experiment [1], the IC50 amounted to 217 nM. In experiment [2], the inhibitory constant (Ki) turned out to be 20 nM.
For `Nc1cnc(-c2ccc(-c3ccccc3NS(=O)(=O)N3CCOCC3)cc2F)cn1` [Example 183, N-[4′-(5-Aminopyrazin-2-yl)-3′-fluorobiphenyl-2-yl]morpholine-4-sulfonamide] the same measures were 130 nM and 34 nM.
`Nc1cnc(-c2ccc(-c3ccccc3S(=O)(=O)N3CC[C@@H](O)C3)cc2F)cn1` [Example 185, (3R)-1-{[4′-(5-Aminopyrazin-2-yl)-3′-fluorobiphenyl-2-yl]sulfonyl}pyrrolidin-3-ol trifluoroacetic acid salt]: the IC50 in experiment [1] is 51 nM. The affinity in experiment [2], expressed as Ki, was 10 nM.
The like results for `Nc1cnc(-c2ccc(-c3ccccc3SC(F)(F)F)cc2F)cn1` [Example 189, 5-{3-Fluoro-2′-[(trifluoromethyl)sulfanyl]biphenyl-4-yl}pyrazin-2-amine] were, in that order, 1650 nM and 173 nM.
Turning to `CC(C)(C)Sc1ccccc1-c1ccc(-c2cnc(N)cn2)c(F)c1` [Example 190, 5-[2′-(tert-Butylsulfanyl)-3-fluorobiphenyl-4-yl]pyrazin-2-amine], the IC50 in experiment [1] was determined as 471 nM. For the same compound, in experiment [2], the inhibitory constant (Ki) turned out to be 58 nM.
The like results for `CCCS(=O)(=O)c1ccccc1-c1ccc(-c2cnc(N)cn2)c(F)c1` [Example 192, 5-[3-Fluoro-2′-(propylsulfonyl)biphenyl-4-yl]pyrazin-2-amine] were, in that order, 171 nM and 58 nM.
For `CC(C)CS(=O)(=O)c1ccccc1-c1ccc(-c2cnc(N)cn2)c(F)c1` [Example 193, 5-{3-Fluoro-2′-[(2-methylpropyl)sulfonyl]biphenyl-4-yl}pyrazin-2-amine] the same measures were 144 nM and 26 nM.
As to `Nc1cnc(-c2ccc(-c3ccccc3S(=O)(=O)C3CCCC3)cc2F)cn1` [Example 195, 5-[2′-(Cyclopentylsulfonyl)-3-fluorobiphenyl-4-yl]pyrazin-2-amine], the IC50 in experiment [1] was determined as 93 nM. The Ki in experiment [2] was found to be 3 nM.
For `Nc1cnc(-c2ccc(-c3ccccc3S(=O)(=O)C3CCC3)cc2F)cn1` [Example 196, 5-[2′-(Cyclobutylsulfonyl)-3-fluorobiphenyl-4-yl]pyrazin-2-amine] the same measures were 104 nM and 10 nM.
